Measured values taken from patent US12049439B2 (OrsoBio, Inc., priority 2018, dated 2024).

Tested on: PC-3 cells
Test: PC-3 Oxygen Rate Consumption (OCR) Assay
Assay type: cell-based
Settings: Homo sapiens, 0.05 h, medium with 2% FBS, OCR at 3-min post-injection normalized to % increase over DMSO-treated cells, concentration for half-maximal OCR increase, read-out: EC50-PC3-OCR-FBS-3min
Method in brief: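 PC-3 cells seeded a day before, equilibrated 1 h in XF medium with 10 mM glucose, 1 mM pyruvate, 2% FBS, non-CO2 at 37 °C. Compound injected after basal OCR reads; OCR at 3 min post-injection normalized as % increase over DMSO, EC50 = half-maximal increase; six replicates.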

SMILES | EC50 [µM]
O=C(NC12CC(C(F)(F)F)(C1)C2)c1ccccc1NS(=O)(=O)C(F)(F)F [Example 144, N-(3-(trifluoromethyl)bicyclo[1.1.1]pentan-1-yl)-2-((trifluoromethyl)sulfonamido)benzamide] | 18.6
CC(C)(C)c1ccc(S(=O)(=O)Nc2cc(C(F)(F)F)ccc2C(=O)NC23CC(C(F)(F)F)(C2)C3)cc1 [Example 4, 2-((4-(tert-butyl)phenyl)sulfonamido)-4-(trifluoromethyl)-N-(3-(trifluoromethyl)bicyclo[1.1.1]pentan-1-yl)benzamide] | 0.619
O=C(NC12CC(C(F)(F)F)(C1)C2)c1ccc(F)cc1NS(=O)(=O)C1CC1 [Example 2, 2-(cyclopropanesulfonamido)-4-fluoro-N-(3-(trifluoromethyl)bicyclo[1.1.1]pentan-1-yl)benzamide] | 3.65
N#Cc1ccc(S(=O)(=O)Nc2cc(C(F)(F)F)ccc2C(=O)NC23CC(c4ccccc4)(C2)C3)cc1 [Example 160, 2-((4-cyanophenyl)sulfonamido)-N-(3-phenylbicyclo[1.1.1]pentan-1-yl)-4-(trifluoromethyl)benzamide] | 0.632
CS(=O)(=O)Nc1cc(Cl)ccc1C(=O)NC12CCC(C#N)(CC1)CC2 [Example 214, 4-chloro-N-(4-cyanobicyclo[2.2.2]octan-1-yl)-2-(methylsulfonamido)benzamide] | 26.3
N#CC12CC(NC(=O)c3ccc(C(F)(F)F)cc3NS(=O)(=O)c3c(Cl)cc(Cl)cc3Cl)(C1)C2 [Example 40, N-(3-cyanobicyclo[1.1.1]pentan-1-yl)-2-((2,4,6-trichlorophenyl)sulfonamido)-4-(trifluoromethyl)benzamide] | 6.58
CS(=O)(=O)Nc1ccc(OC(F)(F)F)cc1C(=O)NC12CCC(C#N)(CC1)CC2 [Example 185, N-(4-cyanobicyclo[2.2.2]octan-1-yl)-2-(methylsulfonamido)-5-(trifluoromethoxy)benzamide] | 32
CCS(=O)(=O)c1ccc(S(=O)(=O)Nc2cc(C(F)(F)F)ccc2C(=O)NC23CC(C2)C3)cc1 [Example 27, N-(bicyclo[1.1.1]pentan-1-yl)-2-((4-(ethylsulfonyl)phenyl)sulfonamido)-4-(trifluoromethyl)benzamide] | 4.5
CS(=O)(=O)c1ccc(S(=O)(=O)Nc2ccc(C(F)(F)F)cc2C(=O)NC23CC(c4ccccc4)(C2)C3)cc1 [Example 87, 2-((4-(methylsulfonyl)phenyl)sulfonamido)-N-(3-phenylbicyclo[1.1.1]pentan-1-yl)-5-(trifluoromethyl)benzamide] | 3.28
CC(C)S(=O)(=O)Nc1cc(C#N)ccc1C(=O)NC12CCC(C#N)(CC1)CC2 [Example 78, 4-cyano-N-(4-cyanobicyclo[2.2.2]octan-1-yl)-2-((1-methylethyl)sulfonamido)benzamide] | 39.8
Cc1ncsc1CCS(=O)(=O)Nc1ccc(C(F)(F)F)cc1C(=O)NC12CCC(C#N)(CC1)CC2 [Example 200, N-(4-cyanobicyclo[2.2.2]octan-1-yl)-2-((2-(4-methylthiazol-5-yl)ethyl)sulfonamido)-5-(trifluoromethyl)benzamide] | 5.09
CC(C)(C)S(=O)(=O)Nc1ccc(C(F)(F)F)cc1C(=O)NC12CC(C(F)(F)F)(C1)C2 [Example 157, 2-((1,1-dimethylethyl)sulfonamido)-5-(trifluoromethyl)-N-(3-(trifluoromethyl)bicyclo[1.1.1]pentan-1-yl)benzamide] | 0.352
O=C(NC12CC(C1)C2)c1ccc(F)cc1NS(=O)(=O)C1CC1 [Example 50, N-(bicyclo[1.1.1]pentan-1-yl)-2-(cyclopropanesulfonamido)-4-fluorobenzamide] | ≥ 100
CC(C)(C)S(=O)(=O)Nc1ccc(C(F)(F)F)cc1C(=O)NC12CCC(C(=O)O)(CC1)CC2 [Example 156, 4-(2-((1,1-dimethylethyl)sulfonamido)-5-(trifluoromethyl)benzamido)bicyclo[2.2.2]octane-1-carboxylic Acid] | ≥ 200
CS(=O)(=O)Nc1ccc(SC(F)(F)F)cc1C(=O)NC12CCC(C#N)(CC1)CC2 [Example 235, N-(4-cyanobicyclo[2.2.2]octan-1-yl)-2-(methylsulfonamido)-5-((trifluoromethyl)thio)benzamide] | 4.53
COC1(C)CN(S(=O)(=O)Nc2ccc(C(F)(F)F)cc2C(=O)NC23CCC(C#N)(CC2)CC3)C1 [Example 225, N-(4-cyanobicyclo[2.2.2]octan-1-yl)-2-((3-methoxy-3-methylazetidine)-1-sulfonamido)-5-(trifluoromethyl)benzamide] | 6.74
CS(=O)(=O)Nc1ccc(S(=O)(=O)Nc2cc(C(F)(F)F)ccc2C(=O)NC23CC(C(F)(F)F)(C2)C3)cc1 [Example 107, 2-((4-(methylsulfonamido)phenyl)sulfonamido)-4-(trifluoromethyl)-N-(3-(trifluoromethyl)bicyclo[1.1.1]pentan-1-yl)benzamide] | 30.6

SMILES | EC50 [µM]
NS(=O)(=O)c1ccc(S(=O)(=O)Nc2cc(C(F)(F)F)ccc2C(=O)NC23CC(C(F)(F)F)(C2)C3)cc1 [Example 58, 2-((4-sulfamoylphenyl)sulfonamido)-4-(trifluoromethyl)-N-(3-(trifluoromethyl)bicyclo[1.1.1]pentan-1-yl)benzamide] | 63.4
CC(C)(C)S(=O)(=O)Nc1cc(C(F)(F)F)ccc1C(=O)NC12CC(C(F)(F)F)(C1)C2 [Example 110, 2-((1,1-dimethylethyl)sulfonamido)-4-(trifluoromethyl)-N-(3-(trifluoromethyl)bicyclo[1.1.1]pentan-1-yl)benzamide] | 0.445
O=C(NC12CCC(C(F)(F)F)(CC1)CC2)c1ccc(F)cc1NS(=O)(=O)C1CCS(=O)(=O)CC1 [Example 238, 2-((1,1-dioxidotetrahydro-2H-thiopyran)-4-sulfonamido)-4-fluoro-N-(4-(trifluoromethyl)bicyclo[2.2.2]octan-1-yl)benzamide] | 29.7
CS(=O)(=O)Oc1ccc(S(=O)(=O)Nc2cc(C(F)(F)F)ccc2C(=O)NC23CC(C(F)(F)F)(C2)C3)cc1 [Example 103, 4-(N-(5-(trifluoromethyl)-2-((3-(trifluoromethyl)bicyclo[1.1.1]pentan-1-yl)carbamoyl)phenyl)sulfamoyl)phenyl methanesulfonate] | 1.88
COc1ccc(S(=O)(=O)Nc2ccc(C(F)(F)F)cc2C(=O)NC23CCC(C#N)(CC2)CC3)cc1 [Example 121, N-(4-cyanobicyclo[2.2.2]octan-1-yl)-2-((4-methoxyphenyl)sulfonamido)-5-(trifluoromethyl)benzamide] | 2.26
CS(=O)(=O)Nc1ccc(C(F)(F)F)cc1C(=O)NC12CC(Cl)(C1)C2 [Example 80, N-(3-chlorobicyclo[1.1.1]pentan-1-yl)-2-(methylsulfonamido)-5-(trifluoromethyl)benzamide] | 2.54
CC(C)(C)[S+]([O-])Nc1ccc(C(F)(F)F)cc1C(=O)NC12CC(C(F)(F)F)(C1)C2 (stereo not shown) [Example 192, 2-((tert-butylsulfinyl)amino)-5-(trifluoromethyl)-N-(3-(trifluoromethyl)bicyclo[1.1.1]pentan-1-yl)benzamide] | 14.7
CC(C)(C)c1ccc(C(=O)NC23CC(C#N)(C2)C3)c(NS(=O)(=O)c2ccc(S(C)(=O)=O)cc2)c1 [Example 14, 4-(tert-butyl)-N-(3-cyanobicyclo[1.1.1]pentan-1-yl)-2-((4-(methylsulfonyl)phenyl)sulfonamido)benzamide] | ≥ 20
O=C(NC12CC(C(F)(F)F)(C1)C2)c1cc(C(F)(F)F)ccc1NS(=O)(=O)C1COC1 [Example 73, 2-(oxetane-3-sulfonamido)-5-(trifluoromethyl)-N-(3-(trifluoromethyl)bicyclo[1.1.1]pentan-1-yl)benzamide] | 2.62
CS(=O)(=O)c1ccc(S(=O)(=O)Nc2ccc(C(F)(F)F)cc2C(=O)NC23CC(C(F)(F)F)(C2)C3)cc1 [Example 86, 2-((4-(methylsulfonyl)phenyl)sulfonamido)-5-(trifluoromethyl)-N-(3-(trifluoromethyl)bicyclo[1.1.1]pentan-1-yl)benzamide] | 8.27
CS(=O)(=O)Nc1ccc(S(F)(F)(F)(F)F)cc1C(=O)NC12CCC(C#N)(CC1)CC2 [Example 167, N-(4-cyanobicyclo[2.2.2]octan-1-yl)-2-(methylsulfonamido)-5-(pentafluoro-λ^6-sulfanyl)benzamide] | 5.88
CC(C)(C)S(=O)(=O)Nc1ccc(C(F)(F)F)cc1C(=O)NC12CCC(C#N)(CC1)CC2 [Example 191, N-(4-cyanobicyclo[2.2.2]octan-1-yl)-2-((1,1-dimethylethyl)sulfonamido)-5-(trifluoromethyl)benzamide] | 1.76
CS(=O)(=O)Nc1ccc(C(F)(F)F)cc1C(=O)NC12CC(C#N)(C1)C2 [Example 165, N-(3-cyanobicyclo[1.1.1]pentan-1-yl)-2-(methylsulfonamido)-5(trifluoromethyl)benzamide] | 20.8
O=C(NC12CCC(C(F)(F)F)(CC1)CC2)c1ccc(C(F)(F)F)cc1NS(=O)(=O)C1CCS(=O)(=O)CC1 [Example 230, 2-((1,1-dioxidotetrahydro-2H-thiopyran)-4-sulfonamido)-4-(trifluoromethyl)-N-(4-(trifluoromethyl)bicyclo[2.2.2]octan-1-yl)benzamide] | 5.59
CS(=O)(=O)Nc1ccccc1C(=O)NC12CC(C(F)(F)F)(C1)C2 [Example 138, 2-(methylsulfonamido)-N-(3-(trifluoromethyl)bicyclo[1.1.1]pentan-1-yl)benzamide] | ≥ 100
CS(=O)(=O)Nc1c(C(=O)NC23CCC(C#N)(CC2)CC3)ccc2ccccc12 [Example 219, N-(4-cyanobicyclo[2.2.2]octan-1-yl)-1-(methylsulfonamido)-2-naphthamide] | ≥ 200
N#CC12CCC(NC(=O)c3cc(C(F)(F)F)ccc3NS(=O)(=O)Cc3ccccc3)(CC1)CC2 [Example 196, N-(4-cyanobicyclo[2.2.2]octan-1-yl)-2-((phenylmethyl)sulfonamido)-5-(trifluoromethyl)benzamide] | 1.38
